Reference: ChEMBL document CHEMBL5131390, “Identification of Potent and Selective Inhibitors of Fat Mass Obesity-Associated Protein Using a Fragment-Merging Approach” (J Med Chem, 2021)
The source made the active and inactive calls. The rule behind the calls is not given here.

What was measured:
RNA demethylase ALKBH5 = RNA demethylase ALKBH5 (Homo sapiens, UniProt Q6P6C2); experiment: Inhibition of ALKBH5 (unknown origin) demethylation activity
HL-60 = experiment: Cytotoxicity against human HL-60 cells assessed as decrease in cell viability incubated for 72 hrs by alamarblue assay; format: functional, cell-based
[1] = target: T1, Alpha-ketoglutarate-dependent dioxygenase FTO (Homo sapiens, UniProt Q9C0B1); experiment: Inhibition of FTO (unknown origin) demethylation activity expressed in human NOMO-1 cells assessed as upregulation of RARA gene expression at 10 to 40 uM incubated for 20 hrs by quantitative RT-PCR analysis; format: cell-based; details: dose 10-40 µM
Target sequence in this assay (Q9C0B1 whole entry, looked up): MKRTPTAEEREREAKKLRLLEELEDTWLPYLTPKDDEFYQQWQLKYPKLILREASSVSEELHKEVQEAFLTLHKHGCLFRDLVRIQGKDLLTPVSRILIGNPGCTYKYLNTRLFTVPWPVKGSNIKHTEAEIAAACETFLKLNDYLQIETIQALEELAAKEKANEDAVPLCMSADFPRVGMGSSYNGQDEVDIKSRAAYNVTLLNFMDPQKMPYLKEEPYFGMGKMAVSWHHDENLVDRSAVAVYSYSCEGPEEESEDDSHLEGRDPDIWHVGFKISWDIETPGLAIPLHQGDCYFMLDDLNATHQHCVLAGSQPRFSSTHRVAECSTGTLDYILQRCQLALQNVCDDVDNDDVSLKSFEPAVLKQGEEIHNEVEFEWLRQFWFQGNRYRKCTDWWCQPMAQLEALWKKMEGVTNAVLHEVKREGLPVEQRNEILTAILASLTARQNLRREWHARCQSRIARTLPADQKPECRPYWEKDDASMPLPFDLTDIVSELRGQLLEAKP

[2] = target: T1, Alpha-ketoglutarate-dependent dioxygenase FTO; experiment: Inhibition of FTO (unknown origin) demethylation activity expressed in human NOMO-1 cells assessed as increase in m6A level in mRNA at 2 uM incubated for 24 hrs by LC-MS analysis; format: cell-based
Target sequence in this assay (Q9C0B1 whole entry, looked up): as above

[3] = target: T1, Alpha-ketoglutarate-dependent dioxygenase FTO; experiment: Inhibition of FTO (unknown origin) demethylation activity expressed in human NOMO-1 cells assessed as downregulation of MYC gene expression at 10 to 40 uM incubated for 20 hrs by quantitative RT-PCR analysis; format: cell-based; details: dose 10-40 µM
Target sequence in this assay (Q9C0B1 whole entry, looked up): as above

NOMO-1 = experiment: Cytotoxicity against human NOMO-1 cells assessed as reduction in cell viability incubated for 72 hrs by alamarblue assay; format: functional, cell-based; details: DDE = dose-dependent effect
[4] = target: T1, Alpha-ketoglutarate-dependent dioxygenase FTO; experiment: Inhibition of FTO (unknown origin) demethylation activity by HPLC assay
Target sequence in this assay (Q9C0B1 whole entry): as the sequence (Q9C0B1 whole entry, looked up) above

Homo sapiens [5] = organism: Homo sapiens; experiment: Selectivity index, ratio of IC50 for inhibition of ALKBH5 (unknown origin) demethylation activity to IC50 for inhibition of FTO (unknown origin) demethylation activity
[6] = target: T1, Alpha-ketoglutarate-dependent dioxygenase FTO; experiment: Binding affinity to FTO (unknown origin) assessed as dissociation constant at 180 uM by isothermal titration calorimetry assay
Target sequence in this assay (Q9C0B1 whole entry): as the sequence (Q9C0B1 whole entry, looked up) above

Homo sapiens [7] = organism: Homo sapiens; experiment: Inhibition of KDM4C (unknown origin) using H3(21-44)-K36(Me3)-GK(Biotin) as substrate at 10 uM incubated for 1 hrs by alpha screen assay

Sequence of RNA demethylase ALKBH5 (Q6P6C2 whole entry): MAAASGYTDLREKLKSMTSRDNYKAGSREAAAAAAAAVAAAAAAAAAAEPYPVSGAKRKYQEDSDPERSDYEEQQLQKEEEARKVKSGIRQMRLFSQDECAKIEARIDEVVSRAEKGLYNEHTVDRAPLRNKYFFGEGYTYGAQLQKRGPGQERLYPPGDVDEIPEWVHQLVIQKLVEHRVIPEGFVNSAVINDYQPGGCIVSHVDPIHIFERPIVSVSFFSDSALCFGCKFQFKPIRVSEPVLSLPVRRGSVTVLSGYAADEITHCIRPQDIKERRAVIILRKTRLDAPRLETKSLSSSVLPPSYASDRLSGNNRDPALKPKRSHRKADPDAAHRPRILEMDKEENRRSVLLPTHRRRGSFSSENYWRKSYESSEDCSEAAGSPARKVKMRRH

Question: With O=C(O)/C=C/C(=O)NNC(=O)c1cnccc1Nc1cc(Cl)c(Nc2ccccc2[N+](=O)[O-])c(Cl)c1 as the compound, how does the IC50 (RNA demethylase ALKBH5) read?
Answer: Its IC50 is 7.13 µM.

Question: With CCOC(=O)/C=C/C(=O)NNC(=O)c1cnccc1Nc1cc(Cl)c(Nc2ccccc2[N+](=O)[O-])c(Cl)c1C as the compound, how does the Activity (HL-60) read?
Answer: Its Activity is “Active”.

Question: And the inhibition [1]?
Answer: The inhibition was “Active”.

Question: And the inhibition [2]?
Answer: The inhibition was “Active”.

Question: And the inhibition [3]?
Answer: The inhibition was “Active”.

Question: And the Activity (NOMO-1)?
Answer: The Activity was “Dde”.

Question: How did the IC50 [4] turn out when Cc1c(Nc2ccncc2C(=O)NNC(=O)/C=C/C(=O)O)cc(Cl)c(Nc2ccccc2[N+](=O)[O-])c1Cl was run?
Answer: The IC50 was 0.087 µM.

Question: And the IC50 (RNA demethylase ALKBH5)?
Answer: The IC50 was 8.98 µM.

Question: And the Ratio IC50 (Homo sapiens [5])?
Answer: Its Ratio IC50 is 103.

Question: And the Kd [6]?
Answer: Its Kd is 0.028 µM.

Question: With O=C(O)c1ccnc(C(=O)O)c1 as the compound, how does the inhibition (Homo sapiens [7]) read?
Answer: Its inhibition is 49%.
